In article PMC9163831 (Frontiers in Microbiology, 2022):

Key:
[1] = system: Salmonella 26FS26 (mcr-1); assay: Antimicrobial combination susceptibility testing (MIC, MBC, checkerboard FICI) in MH broth; assay type: cell-based, S. typhimurium; conditions: for MIC (in combination): colistin + IBG checkerboard
Procedure: (§1) The susceptibility of the selected Salmonella isolates and quality control isolate (ATCC 25922) to colistin and IBG in MH broth was investigated in accordance with the methods and quality control requirements recommended by the Clinical and Laboratory Standards Institute. Minimal inhibitory concentration (MIC) was the lowest concentration of colistin where visible bacterial growth was inhibited after 24 h of incubation. E. coli ATCC 25922 was used as the quality control strain to ensure the credibility of MICs tested. Susceptibility testing was performed in triplicate and germ-free controls (blank medium). The minimum bactericidal concentration (MBC) in MH broth was measured according to a previous report (Lei et al., [2017]). The synergistic activity between colistin and IBG, and the fractional inhibitory concentration indices (FICI) were measured by checkerboard assays, based on the MIC of each drug (MacNair et al., [2018]). In brief, 50 μL of broth was added to each well, and 50 μL of the indicated concentration of colistin was added into the first well of each line. This process was followed by multiple proportion dilution. Next, 50 μL of samples of different IBG concentrations was added to the dilution medium, and 100 μL of inoculum with a cell density of ~1 × 10^6 colony-forming units (CFU)/mL was added to each well. The FICI was calculated follows:
(§2) (1) FICI=MIC(Colistinincombination)/MIC(Colistin)+MIC(IBGincombination)/MIC(IBG).

[2] = system: Salmonella ATCC14028; assay: as above; assay type: cell-based, S. typhimurium; conditions: for MBC / MIC: alone; for MIC (in combination): colistin + IBG checkerboard
Procedure: as §1, §2

[3] = system: Salmonella 26FS14 (mcr-1); assay: as above; assay type: cell-based, S. typhimurium; conditions: for MIC (in combination): colistin + IBG checkerboard
Procedure: as §1, §2

[4] = system: Salmonella S226 (mcr-1); assay: as above; assay type: cell-based, S. typhimurium; conditions: for MIC (in combination): colistin + IBG checkerboard
Procedure: as §1, §2

[5] = system: Salmonella S235 (mcr-1); assay: as above; assay type: cell-based, S. typhimurium; conditions: for MIC (in combination): colistin + IBG checkerboard
Procedure: as §1, §2

[6] = system: human lung epithelial cells (A549); design: method as in Zhang et al., [2019]; conditions: ref Zhang et al., [2019]; cited from earlier work
[7] = design: method as in Xiao et al., [2018]; conditions: IBG supplementation; ref Xiao et al., [2018]; cited from earlier work
[8] = system: erythrocytes in mice; design: method as in Zhang et al., [2019]; conditions: ref Zhang et al., [2019]; cited from earlier work
[9] = system: mcr-1-positive Salmonella; assay: Dose determination from AUC/MIC targets; assay type: in vivo, broilers; conditions: combination: with 32 mg/kg of IBG
Description: The potential optimal dosage can be calculated using the following equation (Toutain et al., [2002], [2007]):
(3) Dose=(AUC/MIC)·MIC·CL/fu·F,
where dose (per day) is at steady state; CL is the clearance per day; AUC/MIC is the targeted endpoint for optimal efficacy in hours; MIC is the target pathogen; F is the bioavailability factor (from 0 to 1), and fu is the free fraction of the drug (from 0 to 1). In this study, fu = 1.

[10] = Pharmacokinetics of colistin in ileum contents, mcr-1-positive Salmonella infection model; assay type: in vivo, broilers; conditions: for AUC0-24h (intestinal colistin) / Cmax (peak intestinal colistin concentration) / T>MIC: infected broiler
Procedure: After 7-day acclimation, 200 infected broilers were randomly divided into five groups (n = 40/group). Pharmacokinetic analysis of colistin (2, 4, 8, and 16 mg/kg) alone and in combination (4 mg/kg colistin, 32 mg/kg IBG) was performed in mcr-1-positive Salmonella infection broilers following oral gavage. At 0.25, 0.5, 0.75, 1, 2, 4, 6, 8, 12, and 24 h after oral administration, four broilers per group were humanely killed and ileum contents (0.5 g) were sampled. The concentration of colistin in each ileum content sample was determined by validated liquid chromatography-tandem mass spectrometry (LC-MS/MS), with minor modifications. Briefly, intestinal contents (0.5 g) were extracted with 10 mL of 10% trichloroacetic acid and 10 mL of 4% lead acetate, homogenized for 1 min, ultrasonicated (30 min) and centrifuged (10,000 g, 10 min) to obtain supernatant. Thereafter, 2 mL of extraction solution was applied to HLB SPE cartridges, which were prewashed with 3 mL of methanol and 3 mL of water. The cartridges were then rinsed with 3 mL of 4% lead acetate. Afterward, the colistin was eluted with 6 mL of 20% methanol. The elute was evaporated to dryness under a gentle N2 stream at 40°C and the residue was dissolved in 0.5 mL of 0.1% formic acid for concentration analysis. The drug concentrations in intestinal contents were determined using HPLC-MS/MS. The calibration range was 0.25–5 μg/g. The intraday and interday precision levels varied from 2.1 to 9.8% and from 4.5 to 7.0%, respectively. The limit of detection (LOD) and limit of quantification (LOQ) were 0.10 and 0.25 μg/g, respectively.
The values of colistin intestinal content PK parameters in single-dose PK studies were obtained by non-compartmental analysis in Phoenix WinNonlin® 8.2 (Certara, L.P., Princeton, NJ, USA).

[11] = design: method as in Mead et al. ([2021]); conditions: oral administration, 75,000 I.U./kg, chicken; ref Mead et al. ([2021]); cited from earlier work
[12] = system: mcr-1-positive Salmonella; assay: MIC of colistin with and without IBG; assay type: cell-based
Procedure: as §1, with “well.” for “well. The FICI was calculated follows:”

[13] = system: mcr-1-positive Salmonella; assay: Pharmacodynamics of colistin combined with IBG in an intestinal infection model; assay type: in vivo, broilers
Procedure: Broilers were inoculated by oral gavage with 1 mL of mcr-1-positive Salmonella culture containing […]. Necropsies of broilers that had died from infection and of euthanized animals were investigated, and the ileum content samples of broilers were taken as previously described (Addwebi et al., [2014]; Wang et al., [2020]). DNA was extracted from ileum content samples using a fecal DNA extraction kit (G-Clone, Beijing, China) in accordance with the manufacturer's instructions.
Pharmacodynamic analysis of combined colistin and IBG treatment in mcr-1-positive Salmonella infection broilers was performed at 3 h after administration of the inoculum. Afterward, 32 mg/kg of IBG was combined with 2, 4, 8, or 16 mg/kg of colistin, and colistin and IBG were also tested alone at 2, 4, 8, and 16 mg/kg (n = 4 for each group). The broilers were sacrificed after 24 h of therapy, and the intestinal content samples were aseptically removed and homogenized for CFU determination. Untreated control broilers were sacrificed before colistin treatment and at 24 h after treatment.

[14] = system: mcr-1-positive Salmonella; assay: PK/PD analysis, inhibitory effect Imax model; assay type: in vivo, broilers
Procedure: PK/PD analysis was conducted using the inhibitory effect Imax model (Riviere and Toutain, [2011]). This model is described by the following equation: […]
where E is the antibacterial effect, measured as change in log10CFU/g after 24 h of treatment, compared with the initial log10CFU/g in the untreated control broiler; E0 is the difference in the number of bacteria (log10CFU/g) in control samples between time 0 and 24 h. Imax is the maximum antimicrobial growth inhibition determined as the change in log10CFU/g after 24 h treatment with colistin combined with IBG. X is the predictive variable (expressed as AUC0−24h/MIC, Cmax/MIC, and %T>MIC), and IC50 is the X value producing 50% of the maximum antibacterial effect. The relationship between efficacy and the three PK/PD indices was determined by non-linear least-squares regression in a Phoenix WinNonlin® PD model. The coefficient of determination (R^2) was used to estimate the variance caused by regression for each PK/PD index.

[15] = system: mcr-1-positive Salmonella; assay: In vitro time-killing curves; assay type: cell-based
Procedure: After MIC determination, different concentrations of colistin were prepared in broth ranging from different doses before bacterial inoculation (10^6 CFU/mL). Growth was checked with control. The tubes containing bacteria and different concentrations of colistin and IBG were incubated at 37°C. The bacterial count (CFU/mL) was determined for each tube after 0, 1, 2, 4, 6, 8, 12, and 24 h of incubation. In brief, 100 μL of culture was obtained for each time point, and serially diluted, and the colonies were counted the next morning. Each concentration test was performed in triplicate.

[16] = single gavage 16 mg/kg colistin

For `CC(C)Oc1ccc(/C=N/NC(=N)N/N=C/c2ccc(OC(C)C)cc2)cc1` [IBG, isopropoxy benzene guanidine], the “MIC (in combination)” value [1] was 16 µg/mL, the MBC [2] was >512 µg/mL and the MIC [2] was >512 µg/mL. The “MIC (in combination)” value [2] was 4 µg/mL, the “MIC (in combination)” value [3] was 8 µg/mL and the “MIC (in combination)” value [4] was 16 µg/mL. The “MIC (in combination)” value [5] was 16 µg/mL, the “Cytotoxicity IC50” value [6] was 28 µg/mL and the “Adverse reactions in broilers” value [7] was “without adverse reactions”. For the same compound, the “Average daily gain of broilers” value [7] was “improved”, the “Diarrhea rate of broilers” value [7] was “reduced” and the HC50 [8] was > 400 µg/mL.

In the case of Colistin sulfate, the MBC ([1]; alone) is reported as 4 µg/mL, the MIC ([1]; alone) is reported as 2 µg/mL and the “MIC (in combination)” value [1] is reported as 0.5 µg/mL. For the same compound, the MBC [2] was 1 µg/mL, the MIC [2] was 0.5 µg/mL and the “MIC (in combination)” value [2] was 0.125 µg/mL. The MBC ([3]; alone) was 4 µg/mL, the MIC ([3]; alone) was 2 µg/mL and the “MIC (in combination)” value [3] was 0.25 µg/mL. The MBC ([4]; alone) was 4 µg/mL, the MIC ([4]; alone) was 2 µg/mL and the “MIC (in combination)” value [4] was 0.25 µg/mL. The MBC ([5]; alone) was 4 µg/mL, the MIC ([5]; alone) was 2 µg/mL and the “MIC (in combination)” value [5] was 0.25 µg/mL. For the same compound, the “Dose of colistin required to reach 1 × log10 kill” value [9] was 7.54 mg/kg, the “Dose of colistin required to reach 3 × log10 kill” value [9] was “could not achieve” and the “Dose of colistin required to reach 4 × log10 kill” value [9] was “could not achieve”. For the same compound, the “Dose of colistin required to reach stasis” value [9] was 1.94 mg/kg, the “Colistin in ileum samples after 4 h” value ([10]; doses <16 mg/kg, after gavage) was “no colistin was detectable” and the “AUC0-24h (intestinal colistin)” value ([10]; single gavage 2 mg/kg colistin) was 31.58 µg·h/mL. For the same compound, the “Cmax (peak intestinal colistin concentration)” value (from here on “Cmax”) ([10]; single gavage 2 mg/kg colistin) was 13.74 µg/mL, the “T>MIC” value ([10]; single gavage 2 mg/kg colistin) was 15.11% and the “AUC0-24h (intestinal colistin)” value ([10]; single gavage 4 mg/kg colistin) was 43.79 µg·h/mL. For the same compound, the “Cmax” value ([10]; single gavage 4 mg/kg colistin) was 34.37 µg/mL, the “T>MIC” value ([10]; single gavage 4 mg/kg colistin) was 16.48% and the “AUC0-24h (intestinal colistin)” value ([10]; single gavage 8 mg/kg colistin) was 191.81 µg·h/mL. The “Cmax” value ([10]; single gavage 8 mg/kg colistin) was 75.92 µg/mL, the “T>MIC” value ([10]; single gavage 8 mg/kg colistin) was 16.62% and the “AUC0-24h (intestinal colistin)” value [10, 16] was 505.29 µg·h/mL. For the same compound, the “Cmax” value [10, 16] was 151.15 µg/mL, the “T>MIC” value [10, 16] was 99.98% and the “Time to colistin levels below the LOQ after dosing cessation” value [11] was ≤ 4 h. For the same compound, the MIC of colistin ([12]; colistin alone) was 2 µg/mL, the “MIC of colistin in the presence of IBG” value ([12]; in the presence of 8 mg/L of IBG) was 0.25 µg/mL and the “Effect on broilers infected with mcr-1 positive Salmonella” value ([13]; single dose of 2–16 mg/kg of colistin every 24 h) was “not significant effect”. For the same compound, the “3 × log10 kill effect in vivo” value ([13]; ≤ 16 mg/kg of colistin, monotherapy) was “could not achieve”, the E0 ([14]; Imax model, AUC0-24h/MIC index) was 0.51 log10CFU/g and the “IC50 (AUC0-24h/MIC producing 50% of the maximum antibacterial effect)” value ([14]; Imax model, AUC0-24h/MIC index) was 122.19. The Imax ([14]; Imax model, AUC0-24h/MIC index) was 4.55 log10CFU/g, the “AUC0-24h/MIC for 1 log10 kill” value ([14]; intestinal infection model) was 60.66 and the “AUC0-24h/MIC for 2 log10 kill” value ([14]; intestinal infection model) was 150.15. For the same compound, the “AUC0-24h/MIC for bacteriostatic action” value ([14]; intestinal infection model) was 15.62, the Time-kill result ([15]; colistin at 4 mg/L, mcr-1-positive Salmonella) was “Persisting inhibition of bacterial growth” and the “Killing characteristic (time-kill profiles)” value ([15]; varying concentrations, 24 h) was “concentration-dependent killing”.
